Measurements reported in patent US9486440B2, “Uses of indole-ketones or indolidones as neuro-protective drugs” (UNIVERSITY OF MACAU, priority 2011, dated 2016).
“Also recorded” adds a separate entry of the source.

Tests used:
SH-SY5Y cells [1] = conditions: sustained (3 days) treatment, >1 μM; cited from earlier work
[2] = test system: nNOS knockdown SH-SY5Y cells; assay: MPP+ in ShRNA-mediated nNOS knockdown SH-SY5Y cells; format: cell-based, human; conditions: 0.3 μM 2 hours, then 1 mM MPP+ 24 hours
Method: (A) SH-SY5Y cells were transfected with pG418-GFP plasmid (vector), pG418-GFP plasmid encoding nNOS ShRNA (ShnNOS) and pG418-GFP plasmid encoding negative control ShRNA (ShNC). The level of nNOS and β-actin in the cell lysates were analyzed by Western blotting assay by using specific antibodies. […] Cell viability was measured at 24 hours after MPP^+ challenge by MTT assays. Data were the mean±SEM of three separate experiments; **p<0.01 versus control; ^##p<0.01 versus MPP^+ group; ^&p<0.05 versus MPP^+ vector group (Turkey's test).

CGNs [3] = assay: MPP+-induced neurotoxicity in CGNs, MTT and LDH assays; format: cell-based, rat
Method: (§1) All animal experiments were conducted according to the ethical guidelines of ICMS, Macau University and the Animal Care Facility, The Hong Kong Polytechnic University. Rat CGNs were prepared from 8-day-old Sprague-Dawley rats (The Animal Care Facility, The Hong Kong Polytechnic University) as described by Li et al., 2005. Briefly, neurons were seeded at a density of 2.7×10^5 cells/ml in basal modified Eagle's medium (Invitrogen) containing 10% fetal bovine serum, 25 mM KCl, 2 mM glutamine, and penicillin (100 units/ml)/streptomycin (100 μg/ml). Cytosine arabinoside (10 μM) was added to the culture medium 24 hour after plating to limit the growth of non-neuronal cells. With the use of this protocol, more than 95% of the cultured cells were granule neurons.
(§2) The percentage of surviving neurons in the presence of SU4312 and/or MPP^+ was estimated by determining the activity of mitochondrial dehydrogenases with 3(4,5-dimethylthiazol-2-yl)-2.5-diphenyltetrazolium bromide (MTT) assay (Li et al., 2007). The assay was performed according to the specifications of the manufacturer (MTT kit I; Roche Applied Science). Briefly, the neurons were cultured in 96-well plates, 10 μl of 5 mg/ml MTT labeling reagent was added to each well containing cells in 100 μl of medium, and the plates were incubated for 4 hours in a humidified incubator at 37° C. After the incubation, 100 μl of the solvating solution (0.01 N HCl in 10% SDS solution) was added to each well for 16-20 hours. Absorbance of the samples was measured at a wavelength of 570 nm with 655 nm as a reference wavelength. Unless otherwise indicated, the extent of MTT conversion in cells exposed to MPP^+ is expressed as a percentage of the control.
Cytotoxicity was determined by measuring the release of lactate dehydrogenase (LDH). Briefly, cells were precipitated by centrifugation at 500 g for 5 min at room temperature, 50 μl of the supernatants was transferred into new wells, and LDH was determined using the in vitro toxicology assay kit (Roche). The absorbance of the samples was measured at a wavelength of 490 nm with 655 nm as a reference wavelength.
as §1, with “Rat” for “All animal experiments were conducted according to the ethical guidelines of ICMS, Macau University and the Animal Care Facility, The Hong Kong Polytechnic University. Rat”, “hours” for “hour”
as §2, with “The” for “The percentage of surviving neurons in the presence of SU4312 and/or MPP^+ was estimated by determining the activity of mitochondrial dehydrogenases with 3(4,5-dimethylthiazol-2-yl)-2.5-diphenyltetrazolium bromide (MTT) assay (Li et al., 2007). The”, “incubated at 37° C.” for “incubated”, “incubator.” for “incubator at 37° C.”, “The absorbance” for “Absorbance”

CGNs [4] = assay: Low potassium-induced cell death in CGNs, MTT assay; format: cell-based; conditions: 5 mM KCl BME medium, 24 hours; sunitinib 0.1-2 μM
Method: (§3) Cell viability was measured by MTT assay at 24 hours after low potassium challenge. […] After 24 hours of low potassium challenge, CGNs were assayed with an FDA/PI double staining. […] After 24 hours of low potassium challenge, CGNs were assayed with Hoechst staining. The number of apoptotic nuclei with condensed chromatin were counted from representative Hoechst staining photomicrographs and represented as a percentage of the total number of nuclei counted. […] Intracellular NO level was measured using DAF-FM diacetate as a probe at 4 hour after low potassium challenge. Data, expressed as percentage of control (CGNs were cultured in high potassium medium), were the mean±SEM of three separate experiments; *p<0.05 and **p<0.01 versus low potassium group in (A) and (D) or versus control in (C); ^##p<0.01 versus low potassium group in (C) (Turkey's test).
It was previously reported that low potassium could induce typical apoptosis in cerebellar granule neurons (CGNs) (Fu et al., 2008). […] Cell viability was measured with an MTT assay 24 hours after the low potassium treatment.

[5] = cited from earlier work
SH-SY5Y cells [6] = assay: MPP+-induced neurotoxicity in SH-SY5Y cells, MTT assay; format: cell-based, human; conditions: for MPP+-induced neuronal death in SH-SY5Y cells (MTT): pre-treatment 2 hours, then 1 mM MPP+ for 24 hours
Method: The human neuroblastoma SH-SY5Y cells were obtained from ATCC. The cells were maintained in supplemented Dulbecco's modified eagle medium (DMEM), 10% fetal bovine serum, 100 U/ml penicillin, and 100 μg/ml streptomycin in a 37° C., 5% CO2 incubator. PC12 pheochromocytoma cells were also obtained from ATCC. The cells were cultured in medium that consisted of DMEM, 10% heat-inactivated horse serum, 5% fetal bovine serum, 100 U/ml penicillin, and 100 μg/ml streptomycin in a 37° C., 5% CO2 incubator. All experiments were carried out 48 hours after the cells were seeded. […] The assay was performed according to the specifications of the manufacturer (MTT kit I; Roche Applied Science). […] After the incubation, 100 μl of the solvating solution (0.01 N HCl in 10% SDS solution) was added to each well for 16-20 hours. Absorbance of the samples was measured at a wavelength of 570 nm with 655 nm as a reference wavelength. Unless otherwise indicated, the extent of MTT conversion in cells exposed to MPP^+ is expressed as a percentage of the control.

CGNs [7] = assay: Hoechst 33342 staining of CGNs after low potassium; format: cell-based; conditions: 1.5 μM, 24 hours
Method: as §3
(§4) The neurons were examined by FDA/PI double staining.

CGNs [8] = assay: FDA/PI double staining of CGNs after low potassium; format: cell-based; conditions: 1.5 μM, 24 hours
Method: as §3, §4

eNOS = eNOS (Homo sapiens, UniProt P29474); assay: In vitro NOS activity assay of Example 3, eNOS; format: biochemical; conditions: 100 μM; data not shown
rat cerebellum nNOS = target: T1, rat cerebellum nNOS (Rattus norvegicus, UniProt P29476); assay: In vitro nNOS activity assay, rat cerebellum nNOS; format: biochemical
T1 construct: purchased Calbiochem
Method: Rat cerebellum nNOS was from Calbiochem. NOS activity was determined by monitoring the conversion of L-[3H]arginine to [3H]citrulline following the instructions provided by the kit (Calbiochem). The reaction mixture contained a final volume of 40 μl with 25 mM Tris-Cl at pH 7.4, 3 μM tetrahydrobiopterin, 1 μM FAD, 1 μM FMN, 1 mM NADPH, 0.6 mM CaCl2, 0.1 μM calmodulin, 2.5 μg of pure NOS enzyme, 5 μl L-[3H]arginine (Perkin Elmer, Waltham, Mass., USA), and different concentrations of the tested reagents. The reaction mixture was incubated at 22° C. for 45 min. The reaction was quenched by adding 400 μl of stopping buffer (50 mM HEPES, pH 5.5, and 5 mM EDTA). Unreacted L-[3H]arginine was then trapped by 100 μl of equilibrated resin in a spin cup followed by centrifugation at 13,200 rpm for 30 s.

[9] = daily oral administration; cited from earlier work
intracellular NO [10] = assay: Intracellular NO in SH-SY5Y cells after MPP+; format: cell-based, human; conditions: 0.3 μM 2 hours, then 1 mM MPP+ 24 hours
Method: Cell viability was measured by the MTT assay at 24 hours after MPP^+ challenge. […] Intracellular NO level was measured using DAF-FM diacetate as a probe at 24 hour after MPP^+ challenge. Data, expressed as percentage of control, were the mean±SEM of three separate experiments; *p<0.05 and **p<0.01 versus MPP^+ group (ANOVA and Dunnett's test).
DAF-FM diacetate was also used to evaluate the intracellular NO level in this model.

iNOS [11] = target: T2, iNOS (Homo sapiens, UniProt P35228); assay: In vitro NOS activity assay of Example 3, iNOS; format: biochemical; conditions: 100 μM; data not shown
intracellular NO [12] = assay: Intracellular NO in CGNs after low potassium; format: cell-based; conditions: 1.5 μM, 4 hour after low potassium challenge
Method: as §3

CGNs [13] = conditions: VEGF 10-300 ng/ml; cited from earlier work
intracellular NO [14] = assay: Intracellular NO in CGNs after MPP+ (DAF-FM diacetate); format: cell-based, rat; conditions: pre-treatment 2 hours, 35 μM MPP+, 24 hours; SU4312 3-30 μM, 7-NI 3-10 μM
Method: (§5) Intracellular NO was monitored with 4-Amino-5-methylamino-2′,7′-difluorofluorescein (DAF-FM) diacetate, a pH-insensitive fluorescent dye that emits increased fluorescence after reaction with an active intermediate of NO formed during the spontaneous oxidation of NO to NO2 (Sheng et al., 2005). DAF-FM solution was added to the culture medium (final concentration: 5 μM). After 30 min in a CO2 incubator, cultures were washed twice with PBS and incubated for an additional 30 min to allow complete de-esterification of the intracellular diacetate for stronger fluorescence. The DAF-FM fluorescence in CGNs was quantified by a multi-detection microplate reader using excitation and emission wavelengths of 495 nm and 515 nm, respectively. The measured fluorescence values were expressed as a percentage of the fluorescence in the control cells.
as §5, with “(4-amino-5-methylamino-2′,7′-difluorofluorescein) DAF-FM” for “4-Amino-5-methylamino-2′,7′-difluorofluorescein (DAF-FM)”, “After incubation for” for “After”, “another” for “an additional”, “strong” for “stronger”

iNOS [15] = target: T2, iNOS; conditions: cited from earlier work
nNOS = nNOS (Homo sapiens, UniProt P29475); conditions: cited from earlier work

**Q.** With `CCN(CC)CCNC(=O)c1c(C)[nH]c(/C=C2\C(=O)Nc3ccc(F)cc32)c1C` [Sunitinib, N-(2-diethylaminoethyl)-5-[(Z)-(5-fluoro-2-oxo-1H-indol-3-ylidene)methyl]-2,4-dimethyl-1H-pyrrole-3-carboxamide] as the compound, how does the “proliferation of SH-SY5Y cells (previous studies)” value (SH-SY5Y cells [1]) read?
**A.** could reduce the proliferation of SH-SY5Y cells

**Q.** And the “MPP+-induced cell death in nNOS knockdown SH-SY5Y cells (MTT)” value [2]?
**A.** did not significantly inhibit MPP^+-induced cell death

**Q.** And the “cell proliferative or cytotoxic effects of the drug alone” value (CGNs [3])?
**A.** did not show cell proliferative or cytotoxic effects

**Q.** And the “low potassium-induced cell death (MTT)” value (CGNs [4])?
**A.** unexpectedly prevented low potassium-induced cell death in CGNs in a concentration-dependent manner

**Q.** What about the “sunitinib still accumulated in the brain” value ([5]; 60 min following administration) of the same compound?
**A.** 25%

**Q.** And the “sunitinib retained in the brain” value ([5]; 6 hour after oral administration)?
**A.** 60 ng/mL

**Q.** What about the “cell proliferative or cytotoxic effects of the drug alone, SH-SY5Y cells” value (SH-SY5Y cells [6]) of the same compound?
**A.** did not show cell proliferative or cytotoxic effects

**Q.** What about the “toxicity to SH-SY5Y cells at higher concentration” value (SH-SY5Y cells [6]; higher concentration (sunitinib 1 μM), data not shown) of the same compound?
**A.** at higher concentration (1 μM) showed toxicity to SH-SY5Y cells

**Q.** And the “MPP+-induced neuronal death in SH-SY5Y cells (MTT)” value (SH-SY5Y cells [6])?
**A.** prevented MPP^+-induced neuronal death at 0.1-0.3 μM

**Q.** What about the “neuronal apoptosis induced by low potassium (Hoechst 33342)” value (CGNs [7]) of the same compound?
**A.** significantly reversed neuronal apoptosis induced by low potassium

**Q.** What about the “loss of neurons and morphological alteration induced by low potassium (FDA/PI)” value (CGNs [8]) of the same compound?
**A.** significantly blocked the loss of neurons and reversed the morphological alteration

**Q.** What about the “inhibitory activity against eNOS” value (eNOS) of the same compound?
**A.** showed no inhibitory activity against iNOS or eNOS

**Q.** And the IC50 (rat cerebellum nNOS)?
**A.** 9.6 µM

**Q.** And the “human plasma steady-state level” value [9]?
**A.** 50 to 100 ng/mL

**Q.** And the “MPP+-triggered elevation of intracellular NO level in SH-SY5Y cells” value (intracellular NO [10])?
**A.** attenuated MPP^+-triggered elevation of intracellular NO level

**Q.** And the “inhibitory activity against iNOS” value (iNOS [11])?
**A.** showed no inhibitory activity against iNOS or eNOS

**Q.** And the “low potassium-stimulated NO production” value (intracellular NO [12])?
**A.** antagonized the stimulatory effect of low potassium on the NO production

**Q.** Which “MPP+-induced neurotoxicity in CGNs (earlier study)” value (CGNs [13]) does the source give for VEGF here?
**A.** protected neurons against MPP^+-induced neurotoxicity

**Q.** For `O=[N+]([O-])c1cccc2cn[nH]c12` [7-nitroindazole], which “MPP+-induced cell death (cell viability, MTT and LDH assays)” value (CGNs [3]; pre-treatment 2 hours, then 35 μM MPP+ for 24 hours) is on record?
**A.** inhibited neuronal death; also recorded: protected against neuronal apoptosis

**Q.** And the “MPP+-induced elevation of intracellular NO level” value (intracellular NO [14])?
**A.** inhibited neuronal death and elevated level of intracellular NO induced by MPP^+

**Q.** What about the “MPP+-induced neuronal death in SH-SY5Y cells (MTT)” value (SH-SY5Y cells [6]) of the same compound?
**A.** at 5-10 μM prevented MPP^+-induced neuronal death

**Q.** What about the IC50 (iNOS [15]) of the same compound?
**A.** 20 µM

**Q.** What about the IC50 (nNOS) of the same compound?
**A.** 0.7 µM
